Tested on: LG0703-F948-PDC spheroids with HUVEC/MSC, viability
Test: Anticancer human tumor LG0703-F948-PDC patient-derived lung adenocarcinoma cell line growth inhibition [IpAb]
Conditions: for IC50: curve of first compound; for viability, T/C: stronger effect = lower value
Source text: Combinatorial screen of targeted agents with ipatasertib and abemaciclib in multi-cell type tumor spheroids
A high-throughput screen of multi-cell type tumor spheroids was designed to identify active combinations of targeted small molecules and ipatasertib or abemaciclib. Complex spheroids include a stromal component modeled by human endothelial cells (HUVEC) and fibroblasts modeled by human mesenchymal stem cells (MSCs). The concentration ranges selected for each drug and investigational agent were based upon clinically achievable concentrations if the clinical Cmax of the agent was known.
Compounds. The drugs and investigational agents: ipatasertib (NSC767898), abemaciclib(NSC768073), selumetinib (NSC741078), trametinib (758246), adavosertib (NSC754352), everolimus (NSC733504), sapanisertib (NSC764658), vemurafenib (NSC761431), venetoclax (NSC766270), copanlisib (NSC809693), apelisib (NSC765974), palbociblib (NSC758247), vemurafenib (NSC761431), dabrafenib (NSC764134), ravoxertinib (NSC781343), BMS-387032 (NSC767048), sotorasib (NSC818433), talazoparib (NSC767125) and afursertib (NSC778305), were obtained from the National Cancer Institute (NCI) Developmental Therapeutics Program Chemical Repository. The FDA-approved anticancer drug set is available from the NCI Developmental Therapeutics Program. […] The stock solutions were prepared in dimethyl sulfoxide (DMSO, Sigma-Aldrich, St. Louis, MO, cat. D2650) at 800-fold the tested concentration and stored at -70 degrees C prior to their use. All drugs and investigational agents were tested over a range starting from a high concentration at or near the clinical Cmax and decreasing in half-log increments. If the clinical Cmax for an agent had not been determined, the highest concentration tested was 10 microM.
NCI60 Cell Culture. NCI60 cell lines were obtained from the NCI Developmental Therapeutics Program Tumor Repository. For each lot of cells, the Repository performed Applied Biosystems AmpFLSTR Identifiler testing with PCR amplification to confirm consistency with the published Identifier STR profile for each cell line. Cells were kept in continuous culture for no more than 20 passages. The optimal seeding densities for each of the cell lines at each time point assessed were determined prior to performing the concentration response studies. Briefly, the NCI60 human tumor lines were grown as monolayers in RPMI 1640 medium supplemented with 10% FBS and 2 mmol/L L-glutamine.
An additional 9 lines were from the NCI60 cell line panel including MDA-MB-231 breast carcinoma, MDA-MB-468 breast carcinoma, MCF7 breast carcinoma, Hs578T breast carcinoma, MALME-3M melanoma, SK-MEL-2 melanoma, SK-OV-3 ovarian carcinoma, DU-145 prostate carcinoma, PC-3 prostate carcinoma, all cell lines along with major genetic alterations are listed on Table 2. Pooled donor human umbilical vein endothelial cells (HUVEC, Lonza, cat. CC-2519) and human mesenchymal stem cells (hMSC, Lonza, cat. PT-2501) were purchased from Lonza (Walkersville, MD).
PDMR cell lines were grown in complete medium (DC medium): Dulbecco's modified Eagle's medium (DMEM)/F12 supplemented with 5% fetal bovine serum (FBS), 2 mM L-glutamine, 100 U/mL penicillin and 100 µg/ml streptomycin, 0.4 µg/ml hydrocortisone, 10 ng/ml epidermal growth factor (EGF) recombinant human protein, 24 µg/mL adenine, and 0.1 mg/mL primocin. During culture from frozen stock vials, PDMR cells were cultured in the same medium containing 10 µM Y-27632 (see Table 3). The PDCs were cultured in complete DMEM/F12 media without 10 microM Y-27632 dihydrochloride for at least two passages prior to the screen. The pooled donor HUVEC and hMSC were cultured in endothelial cell growth medium 2 (PromoCell, Heidelberg, Germany, cat. C-22011) and mesenchymal stem cell growth medium 2 (PromoCell, cat. C-28009), respectively. For all experiments, HUVEC and hMSC were used at passages </=5.
[…]

[1] = second compound 0.1 µM, first compound 0.0316 µM
[2] = second compound 0.1 µM, first compound 0.1 µM
[3] = second compound 0.1 µM, first compound 0.316 µM
[4] = second compound 0.1 µM, first compound 1 µM
[5] = second compound 0.316 µM, first compound 0.0316 µM
[6] = second compound 0.316 µM, first compound 0.1 µM
[7] = second compound 0.316 µM, first compound 0.316 µM
[8] = second compound 0.316 µM, first compound 1 µM
[9] = second compound 1 µM, first compound 0.0316 µM
[10] = second compound 1 µM, first compound 0.1 µM
[11] = second compound 1 µM, first compound 0.316 µM
[12] = second compound 1 µM, first compound 1 µM
[13] = second compound 3.16 µM, first compound 0.0316 µM
[14] = second compound 3.16 µM, first compound 0.1 µM
[15] = second compound 3.16 µM, first compound 0.316 µM
[16] = second compound 3.16 µM, first compound 1 µM
[17] = second compound 10 µM, first compound 0.0316 µM
[18] = second compound 10 µM, first compound 0.1 µM
[19] = second compound 10 µM, first compound 0.316 µM
[20] = second compound 10 µM, first compound 1 µM
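Note: spheroids exposed to compounds for seven days before readout.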
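Throughout, for viability, T/C: T/C percent relative to DMSO vehicle wells set as 100% viability.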

CC(=O)c1c(C)c2cnc(Nc3ccc(N4CCNCC4)cn3)nc2n(C2CCCC2)c1=O + CC(C)NCC(C(=O)N1CCN(c2ncnc3c2C(C)CC3O)CC1)c1ccc(Cl)cc1
IC50 (second compound 0.1 µM): > 300 nM | IC50 (second compound 0.316 µM): > 300 nM | IC50 (second compound 1 µM): 2.55 nM | IC50 (second compound 3.16 µM): < 0.949 nM | IC50 (second compound 10 µM): < 0.949 nM | viability, T/C (second compound 0.1 µM, first compound 0.000949 µM): 86.8% | viability, T/C (second compound 0.1 µM, first compound 0.003 µM): 86% | viability, T/C (second compound 0.1 µM, first compound 0.00949 µM): 84.8% | viability, T/C (second compound 0.1 µM, first compound 0.03 µM): 73.3% | viability, T/C (second compound 0.1 µM, first compound 0.0949 µM): 80.4% | viability, T/C (second compound 0.1 µM, first compound 0.3 µM): 73.4% | viability, T/C (second compound 0.316 µM, first compound 0.000949 µM): 70.5% | viability, T/C (second compound 0.316 µM, first compound 0.003 µM): 69.7% | viability, T/C (second compound 0.316 µM, first compound 0.00949 µM): 60.5% | viability, T/C (second compound 0.316 µM, first compound 0.03 µM): 62.5% | viability, T/C (second compound 0.316 µM, first compound 0.0949 µM): 58.4% | viability, T/C (second compound 0.316 µM, first compound 0.3 µM): 60.3% | viability, T/C (second compound 1 µM, first compound 0.000949 µM): 54.6% | viability, T/C (second compound 1 µM, first compound 0.003 µM): 53.1% | viability, T/C (second compound 1 µM, first compound 0.00949 µM): 42.4% | viability, T/C (second compound 1 µM, first compound 0.03 µM): 41.8% | viability, T/C (second compound 1 µM, first compound 0.0949 µM): 42.1% | viability, T/C (second compound 1 µM, first compound 0.3 µM): 43.9% | viability, T/C (second compound 3.16 µM, first compound 0.000949 µM): 50.1% | viability, T/C (second compound 3.16 µM, first compound 0.003 µM): 41.8% | viability, T/C (second compound 3.16 µM, first compound 0.00949 µM): 41.7% | viability, T/C (second compound 3.16 µM, first compound 0.03 µM): 42.2% | viability, T/C (second compound 3.16 µM, first compound 0.0949 µM): 34.9% | viability, T/C (second compound 3.16 µM, first compound 0.3 µM): 33.5% | viability, T/C (second compound 10 µM, first compound 0.000949 µM): 41.5% | viability, T/C (second compound 10 µM, first compound 0.003 µM): 37.9% | viability, T/C (second compound 10 µM, first compound 0.00949 µM): 43.5% | viability, T/C (second compound 10 µM, first compound 0.03 µM): 40% | viability, T/C (second compound 10 µM, first compound 0.0949 µM): 33.5% | viability, T/C (second compound 10 µM, first compound 0.3 µM): 27.5%

COc1c(OCCCN2CCOCC2)ccc2c3n(c(=NC(=O)c4cnc(N)nc4)nc12)CCN3 + CC(C)NCC(C(=O)N1CCN(c2ncnc3c2C(C)CC3O)CC1)c1ccc(Cl)cc1
IC50 (second compound 0.1 µM): 26.6 nM | IC50 (second compound 0.316 µM): 13.6 nM | IC50 (second compound 1 µM): 3.91 nM | IC50 (second compound 3.16 µM): < 3.16 nM | IC50 (second compound 10 µM): < 3.16 nM | viability, T/C (second compound 0.1 µM, first compound 0.00316 µM): 84.6% | viability, T/C (second compound 0.1 µM, first compound 0.01 µM): 70.1% | viability, T/C [1]: 47% | viability, T/C [2]: 21.8% | viability, T/C [3]: 6.53% | viability, T/C [4]: 4.98% | viability, T/C (second compound 0.316 µM, first compound 0.00316 µM): 66.5% | viability, T/C (second compound 0.316 µM, first compound 0.01 µM): 51.5% | viability, T/C [5]: 39.8% | viability, T/C [6]: 15.7% | viability, T/C [7]: 5.88% | viability, T/C [8]: 3.95% | viability, T/C (second compound 1 µM, first compound 0.00316 µM): 52.1% | viability, T/C (second compound 1 µM, first compound 0.01 µM): 42.5% | viability, T/C [9]: 30.1% | viability, T/C [10]: 11.3% | viability, T/C [11]: 5.86% | viability, T/C [12]: 4.35% | viability, T/C (second compound 3.16 µM, first compound 0.00316 µM): 41.9% | viability, T/C (second compound 3.16 µM, first compound 0.01 µM): 35.7% | viability, T/C [13]: 19.8% | viability, T/C [14]: 11.6% | viability, T/C [15]: 4.56% | viability, T/C [16]: 4.47% | viability, T/C (second compound 10 µM, first compound 0.00316 µM): 38.6% | viability, T/C (second compound 10 µM, first compound 0.01 µM): 28.4% | viability, T/C [17]: 25.3% | viability, T/C [18]: 7.44% | viability, T/C [19]: 3.76% | viability, T/C [20]: 2.45%

Cc1nc(NC(=O)N2CCCC2C(N)=O)sc1-c1ccnc(C(C)(C)C(F)(F)F)c1 (stereo not given) + CC(C)NCC(C(=O)N1CCN(c2ncnc3c2C(C)CC3O)CC1)c1ccc(Cl)cc1
IC50 (second compound 0.1 µM): 929 nM | IC50 (second compound 0.316 µM): 366 nM | IC50 (second compound 1 µM): 64.8 nM | IC50 (second compound 3.16 µM): < 31.6 nM | IC50 (second compound 10 µM): < 31.6 nM | viability, T/C [1]: 77.9% | viability, T/C [2]: 76.6% | viability, T/C [3]: 64.3% | viability, T/C [4]: 50.7% | viability, T/C (second compound 0.1 µM, first compound 3.16 µM): 22.4% | viability, T/C (second compound 0.1 µM, first compound 10 µM): 2.44% | viability, T/C [5]: 59.6% | viability, T/C [6]: 60.8% | viability, T/C [7]: 52.1% | viability, T/C [8]: 36.5% | viability, T/C (second compound 0.316 µM, first compound 3.16 µM): 21.1% | viability, T/C (second compound 0.316 µM, first compound 10 µM): 2.34% | viability, T/C [9]: 54% | viability, T/C [10]: 46.7% | viability, T/C [11]: 39.7% | viability, T/C [12]: 32.1% | viability, T/C (second compound 1 µM, first compound 3.16 µM): 13.8% | viability, T/C (second compound 1 µM, first compound 10 µM): 1.78% | viability, T/C [13]: 45.5% | viability, T/C [14]: 39.7% | viability, T/C [15]: 35.8% | viability, T/C [16]: 24.1% | viability, T/C (second compound 3.16 µM, first compound 3.16 µM): 13.1% | viability, T/C (second compound 3.16 µM, first compound 10 µM): 2.03% | viability, T/C [17]: 39.5% | viability, T/C [18]: 33.4% | viability, T/C [19]: 35.9% | viability, T/C [20]: 19% | viability, T/C (second compound 10 µM, first compound 3.16 µM): 12.3% | viability, T/C (second compound 10 µM, first compound 10 µM): 1.55%

Source: PubChem BioAssay AID2060330 (Molecular Pharmacology Branch, DTP, NCI, 2025)
